Reference: patent US10975077B2 (Novira Therapeutics, Inc., priority 2016, dated 2021)

tested on: HBV (encapsidated HBV DNA, HepG2.2.15 cells); test: HBV replication inhibition assay, BDNA assay in HepG2.2.15 cells; format: cell-based; details: Activity in BDNA-assay
Description: HBV replication inhibition by the disclosed compounds were determined in cells infected or transfected with HBV, or cells with stably integrated HBV, such as HepG2.2.15 cells (Sells et al. 1987). In this example, HepG2.2.15 cells were maintained in cell culture medium containing 10% fetal bovine serum (FBS), Geneticin, L-glutamine, penicillin and streptomycin. HepG2.2.15 cells were seeded in 96-well plates at a density of 40,000 cells/well and were treated with serially diluted compounds at a final DMSO concentration of 0.5% either alone or in combination by adding drugs in a checker box format. Cells were incubated with compounds for three days, after which medium was removed and fresh medium containing compounds was added to cells and incubated for another three days. At day 6, supernatant was removed and treated with DNase at 37° C. for 60 minutes, followed by enzyme inactivation at 75° C. for 15 minutes. Encapsidated HBV DNA was released from the virions and covalently linked HBV polymerase by incubating in lysis buffer (Affymetrix QS0010) containing 2.5 μg proteinase K at 50° C. for 40 minutes. HBV DNA was denatured by addition of 0.2 M NaOH and detected using a branched DNA (BDNA) QuantiGene assay kit according to manufacturer recommendation (Affymetrix). HBV DNA levels were also quantified using qPCR, based on amplification of encapsidated HBV DNA extraction with QuickExtraction Solution (Epicentre Biotechnologies) and amplification of HBV DNA using HBV specific PCR probes that can hybridize to HBV DNA and a fluorescently labeled probe for quantitation. In addition, cell viability of HepG2.2.15 cells incubated with test compounds alone or in combination was determined by using CellTitre-Glo reagent according to the manufacturer protocol (Promega). The mean background signal from wells containing only culture medium was subtracted from all other samples, and percent inhibition at each compound concentration was calculated by normalizing to signals from HepG2.2.15 cells treated with 0.5% DMSO using equation E1. % inhibition=(DMSOave−Xi)/DMSOave×100% E1: where DMSOave is the mean signal calculated from the wells that were treated with DMSO control (0% inhibition control) and Xi is the signal measured from the individual wells. EC50 values, effective concentrations that achieved 50% inhibitory effect, were determined by non-linear fitting using Graphpad Prism software (San Diego, Calif.) and equation E2: Y=Y min+(Y max −Y min)/(1+10(Log EC50−X)×HillSlope) E2: […]
where Y represents percent inhibition values and X represents the logarithm of compound concentrations.
Selected disclosed compounds were assayed in the HBV replication assay (BDNA assay), as described above and a representative group of these active compounds is shown in Table 6.

SMILES	EC50
CCC(O)C1CN(C)C(=O)c2c3c(nn2C1)CCN(C(=O)Nc1ccc(F)c(C#N)c1F)C3 (single isomer, unassigned) [Compound 098_E3, (S*)—N-(3-cyano-2,4-difluorophenyl)-8-((S*)-1-hydroxypropyl)-10-methyl-11-oxo-1,3,4,7,8,9,10,11-octahydro-2H-pyrido[4′,3′:3,4]pyrazolo[1,5-a][1,4]diazepine-2-carboxamide]	100 to 500 nM
CCC(O)C1CN(C)C(=O)c2c3c(nn2C1)CCN(C(=O)Nc1ccc(F)c(C#N)c1F)C3 (single isomer, unassigned) [Compound 098_E4, (R*)—N-(3-cyano-2,4-difluorophenyl)-8-((R*)-1-hydroxypropyl)-10-methyl-11-oxo-1,3,4,7,8,9,10,11-octahydro-2H-pyrido[4′,3′:3,4]pyrazolo[1,5-a][1,4]diazepine-2-carboxamide]	500 to 1000 nM
CCC(O)C1CN(C)C(=O)c2c3c(nn2C1)CCN(C(=O)Nc1ccc(F)c(C(F)(F)F)c1)C3 (single isomer, unassigned) [Compound 099_E1, (R*)—N-(4-fluoro-3-(trifluoromethyl)phenyl)-8-((S*)-1-hydroxypropyl)-10-methyl-11-oxo-1,3,4,7,8,9,10,11-octahydro-2H-pyrido[4′,3′:3,4]pyrazolo[1,5-a][1,4]diazepine-2-carboxamide]	1 to 100 nM
CCC(O)C1CN(C)C(=O)c2c3c(nn2C1)CCN(C(=O)Nc1ccc(F)c(C(F)(F)F)c1)C3 (single isomer, unassigned) [Compound 099_E2, (S*)—N-(4-fluoro-3-(trifluoromethyl)phenyl)-8-((R*)-1-hydroxypropyl)-10-methyl-11-oxo-1,3,4,7,8,9,10,11-octahydro-2H-pyrido[4′,3′:3,4]pyrazolo[1,5-a][1,4]diazepine-2-carboxamide]	100 to 500 nM
CCC(O)C1CN(C)C(=O)c2c3c(nn2C1)CCN(C(=O)Nc1ccc(F)c(C(F)(F)F)c1)C3 (single isomer, unassigned) [Compound 099_E3, (S*)—N-(4-fluoro-3-(trifluoromethyl)phenyl)-8-((S*)-1-hydroxypropyl)-10-methyl-11-oxo-1,3,4,7,8,9,10,11-octahydro-2H-pyrido[4′,3′:3,4]pyrazolo[1,5-a][1,4]diazepine-2-carboxamide]	1 to 100 nM
CCC(O)C1CN(C)C(=O)c2c3c(nn2C1)CCN(C(=O)Nc1ccc(F)c(C(F)(F)F)c1)C3 (single isomer, unassigned) [Compound 099_E4, (R*)—N-(4-fluoro-3-(trifluoromethyl)phenyl)-8-((R*)-1-hydroxypropyl)-10-methyl-11-oxo-1,3,4,7,8,9,10,11-octahydro-2H-pyrido[4′,3′:3,4]pyrazolo[1,5-a][1,4]diazepine-2-carboxamide]	100 to 500 nM
CN1CC(CNCC(F)F)Cn2nc3c(c2C1=O)CN(C(=O)Nc1ccc(F)c(C(F)(F)F)c1)CC3 (single isomer, unassigned) [Compound 119_E1, (R*)-8-(((2,2-difluoroethyl)amino)methyl)-N-(4-fluoro-3-(trifluoromethyl)phenyl)-10-methyl-11-oxo-1,3,4,7,8,9,10,11-octahydro-2H-pyrido[4′,3′:3,4]pyrazolo[1,5-a][1,4]diazepine-2-carboxamide]	100 to 500 nM
CN1CC(CNCC(F)F)Cn2nc3c(c2C1=O)CN(C(=O)Nc1ccc(F)c(C(F)(F)F)c1)CC3 (single isomer, unassigned) [Compound 119_E2, (S*)-8-(((2,2-difluoroethyl)amino)methyl)-N-(4-fluoro-3-(trifluoromethyl)phenyl)-10-methyl-11-oxo-1,3,4,7,8,9,10,11-octahydro-2H-pyrido[4′,3′:3,4]pyrazolo[1,5-a][1,4]diazepine-2-carboxamide]	1 to 100 nM
C=CC(O)C1CN(C)C(=O)c2c3c(nn2C1)CC(C)N(C(=O)Nc1ccc(F)c(C#N)c1)C3 (single isomer, unassigned) [Compound 123_D1, (3R,8S*)—N-(3-cyano-4-fluorophenyl)-8-((R*)-1-hydroxyallyl)-3,10-dimethyl-11-oxo-1,3,4,7,8,9,10,11-octahydro-2H-pyrido[4′,3′:3,4]pyrazolo[1,5-a][1,4]diazepine-2-carboxamide]	1 to 100 nM

same assay, conditions: Hepatitis B virus, HepG2.2.15, Activity in BDNA-assay

SMILES	EC50
CCC(O)C1CN(C)C(=O)c2c3c(nn2C1)CCN(C(=O)Nc1ccc(F)c(Cl)c1F)C3 (single isomer, unassigned) [Compound 100_E1, (R*)—N-(3-chloro-2,4-difluorophenyl)-8-((S*)-1-hydroxypropyl)-10-methyl-11-oxo-1,3,4,7,8,9,10,11-octahydro-2H-pyrido[4′,3′:3,4]pyrazolo[1,5-a][1,4]diazepine-2-carboxamide]	1 to 100 nM
CCC(O)C1CN(C)C(=O)c2c3c(nn2C1)CCN(C(=O)Nc1ccc(F)c(Br)c1F)C3 (single isomer, unassigned) [Compound 101_E1, (R*)—N-(3-bromo-2,4-difluorophenyl)-8-((S*)-1-hydroxypropyl)-10-methyl-11-oxo-1,3,4,7,8,9,10,11-octahydro-2H-pyrido[4′,3′:3,4]pyrazolo[1,5-a][1,4]diazepine-2-carboxamide]	1 to 100 nM
CCC(O)C1CN(C)C(=O)c2c3c(nn2C1)CCN(C(=O)Nc1ccc(F)c(C(F)(F)F)c1F)C3 (single isomer, unassigned) [Compound 103_E1, (R*)—N-(2,4-difluoro-3-(trifluoromethyl)phenyl)-8-((S*)-1-hydroxypropyl)-10-methyl-11-oxo-1,3,4,7,8,9,10,11-octahydro-2H-pyrido[4′,3′:3,4]pyrazolo[1,5-a][1,4] diazepine-2-carboxamide]	1 to 100 nM
CCC(O)C1CN(C)C(=O)c2c3c(nn2C1)CCN(C(=O)Nc1cc(F)c(F)c(F)c1)C3 (single isomer, unassigned) [Compound 104_E1, (R*)-8-((S*)-1-hydroxypropyl)-10-methyl-11-oxo-N-(3,4,5-trifluorophenyl)-1,3,4,7,8,9,10,11-octahydro-2H-pyrido[4′,3′:3,4]pyrazolo[1,5-a][1,4] diazepine-2-carboxamide]	1 to 100 nM
CCC(O)C1CN(C)C(=O)c2c3c(nn2C1)CCN(C(=O)Nc1cc(F)c(F)c(F)c1F)C3 (single isomer, unassigned) [Compound 105_E1, (R*)-8-((S*)-1-hydroxypropyl)-10-methyl-11-oxo-N-(2,3,4,5-tetrafluorophenyl)-1,3,4,7,8,9,10,11-octahydro-2H-pyrido[4′,3′:3,4]pyrazolo[1,5-a][1,4]diazepine-2-carboxamide]	1 to 100 nM
CN1CC(CNCC(F)F)Cn2nc3c(c2C1=O)CN(C(=O)Nc1ccc(F)c(C#N)c1)CC3 (single isomer, unassigned) [Compound 118_E1, (R*)—N-(3-cyano-4-fluorophenyl)-8-(((2,2-difluoroethyl)amino)methyl)-10-methyl-11-oxo-1,3,4,7,8,9,10,11-octahydro-2H-pyrido[4′,3′:3,4]pyrazolo[1,5-a][1,4]diazepine-2-carboxamide]	100 to 500 nM
CN1CC(CNCC(F)F)Cn2nc3c(c2C1=O)CN(C(=O)Nc1ccc(F)c(C#N)c1)CC3 (single isomer, unassigned) [Compound 118_E2, (S*)—N-(3-cyano-4-fluorophenyl)-8-(((2,2-difluoroethyl)amino)methyl)-10-methyl-11-oxo-1,3,4,7,8,9,10,11-octahydro-2H-pyrido[4′,3′:3,4]pyrazolo[1,5-a][1,4]diazepine-2-carboxamide]	1 to 100 nM
